Where two headings read alike, the source gives them in different places.
Tests used:
[1] = molecular target: BuChE (Homo sapiens, UniProt P06276); experiment: In vitro screening assay, BuChE inhibition; assay type: biochemical
Text: An in vitro screening assay with various conjugates was completed according to the methods described in Ellman G L et al., Biochem Pharmacol., 7:88-95 (1961) and in Nadarajah B, J. Anal. Toxicol., 16:192-193 (1992), both of which are herein incorporated by reference in their entireties. The assay method was completed according to the following: […]

[2] = molecular target: T1, AChE (Human recombinant HEK-293 cells) (Homo sapiens, UniProt P22303); assay type: biochemical
T1 construct: host or cells: HEK-293 cells (expression host as printed)

[3] = tested on: male CD IGS (Sprague Dawley derived) rats; experiment: Dose range for cholinergic effects / max tolerated dose; settings: for TIMTD/ MED: ratio of max tolerated dose to hypothermia MED, rats s.c.
Procedure: The dose range and time course for cholinergic effects of the compounds of the invention was determined as described below. • Subjects: Two hundred eight male CD IGS (Sprague Dawley derived) rats were received at 126-150 grams and maintained four per cage on a regular light/dark cycle (lights on 0600-1800) with ad libitum food and water for about 1 week before commencement of experimentation. • Apparatus: Injections were made subcutaneously (s.c.) with a 25-gauge needle on a 1-mL tuberculin syringe. Observations were made in a 5½×10-inch polycarbonate rat housing cage. Temperature was taken with a rat rectal probe on a Model BAT-12 electronic thermometer. • Compound Preparation: Test compounds were dissolved for example, in 0.9% saline. […] Injection volumes were 1 mL/kg, if the test compound was sufficiently soluble. If less soluble, maximum injection volume were 5 mL/kg.
Test Compounds were dosed at 1, 3, 10, 30, and 100 mg/kg • Procedure: The rats were brought to the test room in the home cage. Baseline temperatures were measured just before injection. After injection s.c., the rat was placed in the observation cage. At 0.5, 1, 2, and 4 hours after injection, it was observed briefly for gross signs; salivation was scored as absent, clearly present, or copious; and rectal temperature was taken. In observation for gross signs, special attention was paid to fasciculation (muscle twitch), tremor/ataxia, and abnormal gait. The experiment was designed to allow assessment of one rat per time point per minute. Salivation score and temperature were determined within this constraint, but only the most salient of gross signs were noted. After the 4-hour observation point, or sooner if signs of distress were observed, the rat was euthanized by CO2 inhalation. • Data Analysis: Gross signs, salivation score, and temperature at each time point were tabulated for inspection. This is a combination of within-subject design for control and between-subjects design for dose effect. That is, the effect of the compound was measured against the reading taken immediately before injection, and the difference between doses of the compound was measured between groups of three rats.

[4] = molecular target: T2, human recombinant acetylcholinesterase (Homo sapiens, UniProt P22303); experiment: biochemical; settings: human recombinant AChE, 25° C., 30 minutes preincubation, Dixon plot
T2 construct: purchased Sigma Chemical Co (St. Louis, Mo.) C1682

[5] = tested on: rats; experiment: Methamphetamine drug discrimination test
[6] = tested on: male CD IGS (Sprague Dawley derived) rats; experiment: Measurement of hypothermia (marker of CNS penetration for AChE inhibitors); assay type: in vivo; settings: Rattus norvegicus, sc, read-out: Hypothermia MED (mg/kg)
Procedure: The induction of hypothermia was determined for compounds of the invention according to the methods described in Freedman, et al., European Journal of Pharmacology, 187 (1990), 193-199, which is incorporated by reference herein. Hypothermia is a marker of CNS penetration for AChE inhibitors.
The dose range and time course for cholinergic effects of the compounds of the invention was determined as described below. • Subjects: Two hundred eight male CD IGS (Sprague Dawley derived) rats were received at 126-150 grams and maintained four per cage on a regular light/dark cycle (lights on 0600-1800) with ad libitum food and water for about 1 week before commencement of experimentation. • Apparatus: Injections were made subcutaneously (s.c.) with a 25-gauge needle on a 1-mL tuberculin syringe. Observations were made in a 5½×10-inch polycarbonate rat housing cage. […]
Test Compounds were dosed at 1, 3, 10, 30, and 100 mg/kg • Procedure: The rats were brought to the test room in the home cage. Baseline temperatures were measured just before injection. […] At 0.5, 1, 2, and 4 hours after injection, it was observed briefly for gross signs; salivation was scored as absent, clearly present, or copious; and rectal temperature was taken. […] Salivation score and temperature were determined within this constraint, but only the most salient of gross signs were noted. […]

BuChE, sequence (P06276 29-602): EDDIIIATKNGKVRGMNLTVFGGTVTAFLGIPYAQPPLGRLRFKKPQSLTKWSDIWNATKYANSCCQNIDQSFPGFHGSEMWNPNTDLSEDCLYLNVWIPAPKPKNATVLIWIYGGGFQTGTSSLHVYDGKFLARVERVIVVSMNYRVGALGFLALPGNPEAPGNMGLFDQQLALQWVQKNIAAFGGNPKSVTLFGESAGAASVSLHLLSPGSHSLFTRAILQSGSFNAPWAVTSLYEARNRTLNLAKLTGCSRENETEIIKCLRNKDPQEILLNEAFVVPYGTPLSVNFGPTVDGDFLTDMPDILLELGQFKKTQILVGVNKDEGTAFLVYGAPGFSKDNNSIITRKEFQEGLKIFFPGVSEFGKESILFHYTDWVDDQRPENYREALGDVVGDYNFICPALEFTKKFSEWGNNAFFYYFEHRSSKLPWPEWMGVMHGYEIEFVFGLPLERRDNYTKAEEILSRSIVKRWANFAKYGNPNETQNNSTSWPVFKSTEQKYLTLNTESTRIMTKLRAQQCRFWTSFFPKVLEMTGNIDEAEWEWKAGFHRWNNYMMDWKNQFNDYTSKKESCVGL
T2 sequence (P22303 32-614): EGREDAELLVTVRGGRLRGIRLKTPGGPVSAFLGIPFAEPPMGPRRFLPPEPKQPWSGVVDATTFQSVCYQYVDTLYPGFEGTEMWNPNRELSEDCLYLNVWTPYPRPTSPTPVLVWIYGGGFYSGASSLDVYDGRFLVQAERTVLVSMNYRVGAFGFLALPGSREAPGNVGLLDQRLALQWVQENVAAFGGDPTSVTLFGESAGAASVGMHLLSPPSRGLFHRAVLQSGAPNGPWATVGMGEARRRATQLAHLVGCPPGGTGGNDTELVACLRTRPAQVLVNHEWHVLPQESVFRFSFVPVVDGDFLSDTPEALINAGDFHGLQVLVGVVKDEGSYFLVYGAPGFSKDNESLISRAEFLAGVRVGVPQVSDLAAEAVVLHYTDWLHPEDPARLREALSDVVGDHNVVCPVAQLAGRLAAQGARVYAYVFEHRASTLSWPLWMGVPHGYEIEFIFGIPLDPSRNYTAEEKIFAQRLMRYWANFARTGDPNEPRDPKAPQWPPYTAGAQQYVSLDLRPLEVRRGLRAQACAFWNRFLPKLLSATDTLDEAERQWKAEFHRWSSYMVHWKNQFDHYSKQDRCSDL
T1 sequence (P22303 32-614): as above

| SMILES | BuChE I (%) 10 μM ([1]; 10 μM) | TIMTD/ MED [3] | further results |
| --- | --- | --- | --- |
| C[C@@H](c1cccc(OC(=O)N(C)CC[C@H](Oc2cccc3ccccc23)c2cccs2)c1)N(C)C [Compound 10A, S-riva-duloxetine] | 36% |  |  |
| CN1CC[C@@]2(C)c3cc(OC(=O)Nc4ccccc4)ccc3N(C)[C@@H]12 [Phenserine, reference compound] |  |  | BuChEI (%) 1 μM [2]: 93%; BuChE I (%) 10 μM [1]: 42% |
| C[C@@H](c1cccc(OC(=O)N[C@H]2C[C@@H]2c2ccccc2)c1)N(C)C (stereo in doubt) [Compound 2, S-riva-tranylcypromine] | 67% | 3 |  |
| Cc1ccccc1O[C@H](CCN(C)C(=O)Oc1cccc([C@H](C)N(C)C)c1)c1ccccc1 [Compound 5, S-riva-atomoxetine] | 14% |  |  |
| C[C@@H](c1cccc(OC(=O)N2CC[C@@H](c3ccc(F)cc3)[C@H](COc3ccc4c(c3)OCO4)C2)c1)N(C)C [Compound 9A, S-riva-paroxetine] | 4% |  |  |
| C[C@@H](Cc1ccccc1)NC(=O)Oc1cccc([C@H](C)N(C)C)c1 [Compound 20, S-riva-d-amphetamine] |  |  | IC50 [4]: 449 nM |
| C[C@@H](c1cccc(OC(=O)N(C)CCCC2c3ccccc3C=Cc3ccccc32)c1)N(C)C [Compound 6A, S-riva-protriptyline] | 53% | >1 |  |
| C[C@@H](c1cccc(OC(=O)N(C)[C@@H](C)Cc2ccccc2)c1)N(C)C [Compound 13, S-riva-d-methamphetamine] |  |  | IC50 [4]: 5440 nM |
| COCCCC/C(=N\OCCNC(=O)Oc1cccc([C@H](C)N(C)C)c1)c1ccc(C(F)(F)F)cc1 [Compound 8A, S-riva-fluvoxamine] | 6% |  |  |
| C#CCN(C(=O)Oc1cccc([C@@H](C)N(C)C)c1)[C@H](C)Cc1ccccc1 [Compound 17, R-riva-desmethylselegiline] | 12% |  |  |
| C[C@@H](c1cccc(OC(=O)N(C)CCCN2c3ccccc3CCc3ccccc32)c1)N(C)C [Compound 4A, S-riva-desipramine] | 60% | ≧30 |  |
| C[C@@H](c1cccc(OC(=O)N(C)CCC(Oc2ccc(C(F)(F)F)cc2)c2ccccc2)c1)N(C)C (stereo partly shown) [Compound 7A, S-riva-fluoxetine] | 15% | ≧30 |  |
| C[C@@H](c1cccc(OC(=O)N2CCN(C3=Nc4ccccc4Oc4ccc(Cl)cc43)CC2)c1)N(C)C [Compound 3, S-riva-amoxapine] | 6% | ≧10 |  |
| C#CCN(C(=O)Oc1ccc2c(c1)[C@]1(C)CCN(C)[C@@H]1N2C)[C@H](C)Cc1ccccc1 [Compound 18, Physo-desmethylselegiline] | 8% |  |  |
| C[C@H](Cc1ccccc1)N(C)C(=O)Oc1cccc([C@H](C)N(C)C)c1 [Compound 7, S-riva-l-methamphetamine] |  |  | generalization to methamphetamine (lever selection) ([5]; rats trained to discriminate methamphetamine from vehicle, compound 7 at 0.01-3.2 mg/kg i.p., FIG. 1 top): lack of stimulus generalization to methamphetamine; behavioral disruption ([5]; rats, 1.0 mg/kg of compound 7, FIG. 2 lower): without behavioral disruption; rate of responding ([5]; rats, compound 7 at 0.01-3.2 mg/kg i.p., FIG. 1 lower): markedly decreased reponse rates |
| COc1ccccc1CC(C)N(C)C(=O)Oc1cccc([C@H](C)N(C)C)c1 (stereo partly shown) [Compound 15, S-riva-methoxyphenamine] | 30% |  |  |
| CCN(C)C(=O)Oc1cccc([C@H](C)N(C)C)c1 [Compound 1, S-rivastigmine, reference compound] |  |  | BuChE I (%) 10 μM [1]: 100% |
| C#CCN(C(=O)Oc1cccc([C@H](C)N(C)C)c1)[C@H](C)Cc1ccccc1 [Compound 11, S-riva-desmethylselegiline] | 17% |  |  |
| C[C@@H](c1cccc(OC(=O)N(C)CCC=C2c3ccccc3CCc3ccccc32)c1)N(C)C [Compound 5A, S-riva-nortriptyline] | 55% | ≧100 | minimal effective dose [6]: ≤ 1 mg/kg; Max Tolerated Dose ([3]; rats, s.c., test doses given in mg/kg): ≧100 |
| CC(CC1CCCCC1)N(C)C(=O)Oc1cccc([C@H](C)N(C)C)c1 (stereo partly shown) [Compound 16, S-riva-propylhexedrine] |  | ≧10 |  |

From patent US20110251175A1, “Stigmine Conjugates for Substance Use Disorders” (priority 2008, published 2011)
